{"source": "patent US6903107B1", "about": "“Serine protease inhibitor” (Akzo Nobel N.V., priority 1998, dated 2005)", "data": [{"biological_target": "T1, Human thrombin (Homo sapiens, UniProt P00734)", "T1 construct": "purchased Centraal Laboratorium voor Bloedtransfusie, Amsterdam, The Netherlands", "assay": "Anti-thrombin assay (hydrolysis of chromogenic substrate S-2238)", "format": "biochemical", "details": "chromogenic substrate S-2238, TNP buffer, pH 7.4, 37° C.; read-out: Antithrombin activity: IC50", "protocol": "Thrombin (Factor IIa) is a factor in the coagulation cascade. The anti-thrombin activity of compounds of the present invention was assessed by measuring spectrophotometrically the rate of hydrolysis of the chromogenic substrate s-2238 exterted by thrombin. This assay for anti-thrombin activity in a buffer system was used to assess the IC50-value of a test compound.\nTest medium: Tromethamine-NaCl-polyethylene glycol 6000 (TNP) buffer\nReference compound: 12581 (Kabi)\nVehicle: TNP buffer. Solubilisation can be assisted with dimethylsulphoxide, methanol, ethanol, acetonitrile or tert.-butyl alcohol which are without adverse effects in concentrations up to 2.5% in the final reaction mixture.\nTechnique Reagents* • 1. Tromethamine-NaCl (TN) buffer Composition of the buffer:\n• The pH of the solution is adjusted to 7.4 at 37° C. with HCl (10 mmol.l^−1). • 2. TNP buffer Polyethylene glycol 6000 is dissolved in TN buffer to give a concentration of 3 g.l^−1. • 3. S-2238 solution One vial S-2238 (25 mg; Kabi Diagnostica, Sweden) is dissolved in 20 ml TN buffer to give a concentration of 1.25 mg.ml^−1 (2 mmol.l^−1). • 4. Thrombin solution Human thrombin (16 000 nKat.vial^−1; Centraal Laboratorium voor Bloedtransfusie, Amsterdam, The Netherlands) is dissolved in TNP buffer to give a stock solution of 835 nKat.ml^−1. Immediately before use this solution is diluted with TNP buffer to give a concentration of 3.34 nKat.ml^−1. • All ingredients used are of analytical grade • For aqueous solutions ultrapure water (Milli-Q quality) is used.\nPreparation of test and reference compound solutions\nThe test and reference compounds are dissolved in Milli-Q water to give stock concentrations of 10^−2 mol.l^−1. Each concentration is stepwise diluted with the vehicle to give concentrations of 10^−3, 10^−4 and 10^−5 mol.l^−1. The dilutions, including the stock solution, are used in the assay (final concentrations in the reaction mixture: 3·10^−3; 10^−3; 3·10^−4; 10^−4; 3.10^−5; 10^−5; 3.10^−6 and 10^−6 mol.l^−1, respectively).\nAt room temperature 0.075 ml and 0.025 ml test compound or reference compound solutions or vehicle are alternately pipetted into the wells of a microtiter plate and these solutions are diluted with 0.115 ml and […] TNP buffer, respectively. An aliquot of 0.030 ml S-2238 solution is added to each well and the plate is pre-heated and pre-incubated with shaking in an incubator (Amersham) for 10 min. at 37° C. Following pre-incubation the hydrolysis of S-2238 is started by addition of 0.030 ml thrombin solution to each well. The plate is incubated (with shaking for 30 s) at 37° C. Starting after 1 min of incubation, the absorbance of each sample at 405 nm is measured every 2 min. for a period of 90 min. using a kinetic microtiter plate reader (Twinreader plus, Flow Laboratories). All data are collected in an IBM personal computer using LOTUS-MEASURE. For each compound concentration (expressed in mol.l^−1 reaction mixture) and for the blank the absorbance is plotted versus the reaction time in min.\nEvaluation of responses: For each final concentration the maximum absorbance was calculated from the assay plot. The IC50-value (final concentration, expressed in μmol.l^−1, causing 50% inhibition of the maximum absorbance of the blank) was calculated using the logit transformation analysis according to Hafner et al. (Arzneim.-Forsch./Drug Res. 1977; 27(II): 1871-3).", "units": {"IC50": "µM"}, "values": [{"molecule": "Nc1nccc2cc(OCCC3CCCCN3C(=O)C(CC3CCCCC3)NC3CCCCC3)ccc12", "note": "[Example 11, 1-(N-cyclohexyl-D-cyclohexylalanine)-2-(2-(1-amino-isoquinolin-6-oxy)-ethyl)-piperidine]", "IC50": 0.5}, {"molecule": "CC1(C)C2CCC1(CS(=O)(=O)NC(CC1CCCCC1)C(=O)N1CCCCC1CCOc1ccc3c(N)nccc3c1)C(=O)C2", "note": "[Example 1, (2S)-1-(N-(−)-camphorsulphonyl-D-cyclohexylalaninyl)-2-(2-(1-amino-isoquinolin-6-oxy)-eythyl)-piperidine]", "IC50": 0.41}, {"molecule": "1-(N-cyclooctyl-γ-tert-butyl-L-glutamyl)-2-(2-(1-amino-isoquinolin-6-oxy)-ethyl)-piperidine [Example 8]", "IC50": 0.61}, {"molecule": "Nc1nccc2cc(OCCC3CCCCN3C(=O)C(CC3CCCCC3)NCC(=O)Nc3ccccc3)ccc12", "note": "[Example 10, 1-(N-anilinocarbonylmethyl-D-cyclohexylalaninyl)-2-(2-(1-amino-isoquinolin-6-oxy)-ethyl)-piperidine]", "IC50": 1.35}, {"molecule": "Nc1nccc2cc(OCCC3CCCCN3C(=O)C(CC3CCCCC3)NCC(=O)NC3CCCC3)ccc12", "note": "[Example 9, 1-(N-cyclopentylaminocarbonylmethyl-D-cyclohexylalaninyl)-2-(2-(1-amino-isoquinolin-6-oxy)-ethyl)-piperidine]", "IC50": 0.32}]}]}
